Reference: US20240192233A1, “DRUG DISCOVERY ASSAY TO SCREEN FOR COMPOUNDS” (FUNDACIÓ INSTITUT DE RECERCA BIOMÈDICA (IRB BARCELONA), priority 2021, published 2024)

Columns and labels:
Assay type in all cases: biochemical
AR-NTD [1] = biological target: T1, AR-NTD (Homo sapiens, UniProt P10275); test: Temperature-dependent turbidity shift assay (TSA), critical temperature Tc; conditions: 500 mM NaCl
T1 construct: a domain of the androgen receptor localised at its N-terminus, amino acids 1-558
T1 sequence (P10275 1-558): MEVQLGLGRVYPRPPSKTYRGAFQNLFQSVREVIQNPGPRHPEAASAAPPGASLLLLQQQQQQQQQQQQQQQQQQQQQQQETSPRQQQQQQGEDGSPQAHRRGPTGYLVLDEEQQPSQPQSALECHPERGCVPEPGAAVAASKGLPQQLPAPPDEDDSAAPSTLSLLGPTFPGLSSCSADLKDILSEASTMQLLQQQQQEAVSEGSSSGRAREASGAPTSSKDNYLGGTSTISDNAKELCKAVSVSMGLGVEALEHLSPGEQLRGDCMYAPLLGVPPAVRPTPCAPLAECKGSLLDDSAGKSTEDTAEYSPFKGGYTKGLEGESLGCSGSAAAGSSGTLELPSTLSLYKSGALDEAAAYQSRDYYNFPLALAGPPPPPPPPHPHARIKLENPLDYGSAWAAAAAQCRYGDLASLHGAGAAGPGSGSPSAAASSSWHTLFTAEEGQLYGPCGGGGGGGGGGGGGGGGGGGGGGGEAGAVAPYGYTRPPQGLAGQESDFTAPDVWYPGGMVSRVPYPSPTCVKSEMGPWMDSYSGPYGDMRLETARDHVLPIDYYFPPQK
Procedure: FIG. 6. a) Apparent absorbance (at λ=350 nm) measurement at increasing temperatures of 30 μM ARNTD in 20 mM Hepes 7.4, 500 mM NaCl, 2 mM TCEP buffer in the absence (grey) and presence of 5 eq of EPI-001 (red) or BADGE (green). Dashed lines indicate condensation onset and calculated Tc values are depicted in the insert. b) Tc obtained using the TSA assay of AR-NTD at different concentrations in 20 mM Hepes 7.4, 500 mM NaCl, 2 mM TCEP buffer in the absence (grey) and presence of 5 eq of EPI-001 (red) or BADGE (green). Mean values of 3 independent measurements and the standard deviation are plotted.
To quantify the effects of EPI-001 on the AR-NTD phase separation, we implemented a temperature-dependent turbidity shift assay (TSA). In this assay we measure the sample turbidity as a reporter of condensation and determine the temperature at which a given sample demixes, the Critical Temperature. When droplets are formed, they scatter light and cause an abrupt increase in turbidity. Therefore, values above 0 absorbance units (AU) in the TSA assay indicate condensation. We measure turbidity as the apparent absorbance at a wavelength in which the absorption of the other components in the sample is minimal, in our case 350 nm. Addition of 5 equivalents (eq) of EPI-001 to a 30 μM AR-NTD and 500 mM NaCl sample lowered the Tc of the AR-NTD by 10° C. (FIG. 5a). […]

AR-NTD [2] = biological target: T1, AR-NTD; test: Screening with the condensation assay, amplitude of the absorbance as parameter; conditions: screening concentration 100 μM; references DMSO and EPI-001 at 200 μM; mean of 3 measurements
Procedure: FIG. 9. Results of screening for molecules using the condensation assay with amplitude of the absorbance as a parameter determining the activity of tested molecules. First two bars show data points corresponding to the controls that are used to calculate the activity: negative reference (DMSO), positive reference (EPI-001 at 200 μM). The rest of the bars corresponds to the activity of three screened molecules at a screening concentration 100 μM. […] Mean values of 3 measurements and the standard deviation are plotted.
Please note that, with reference to this aspect of the invention, the inventors have shown that this parameter could also be used to select hits (see FIG. 9).

AR-NTD [3] = biological target: T1, AR-NTD; test: Screening with the condensation (TSA) assay, percentage of shift versus reference shift; conditions: screening concentration 100 μM; negative reference DMSO; mean of 3 measurements
Procedure: FIG. 7. […] First two bars show data points corresponding to the controls that are used to calculate the activity: Negative reference (DMSO), Positive reference (EPI-001 at 200 μM). […] Mean values of 3 measurements and the standard deviation are plotted.
In this sense, in FIG. 7 the first two bars show data points corresponding to the controls that are used to calculate the activity: • Negative reference—DMSO • Positive reference—EPI-001 at 200 μM
Briefly, in order to quantitatively rank the tested compounds with regards to their efficacy to enhance the AR-NTD condensation in vitro and compare it to that of EPI-001, we measured the cloud point temperature (Tc) of each of the samples at constant protein concentration (100 μM). Then, we calculated the percentage of shift caused by the compound in comparison to the reference shift, the one caused by 200 μM EPI-001. Next, we plotted the normalised shift versus the compound concentration.

| Compound | enhancement of AR-NTD condensation at all protein concentrations tested (left arm of phase diagram) (AR-NTD [1]; 5 eq of compound, various AR-NTD concentrations) | lowering of the Tc of the AR-NTD (AR-NTD [1]; 5 equivalents of compound, 30 μM AR-NTD, absorbance at 350 nm) | hit classification by activity based on amplitude of the absorbance, cut-off 25% (AR-NTD [2]) | hit classification by activity (percentage of Tc shift relative to 200 μM EPI-001), cut-off 25% (AR-NTD [3]) |
| --- | --- | --- | --- | --- |
| CC(C)(c1ccc(OCC2CO2)cc1)c1ccc(OCC2CO2)cc1 (stereo not drawn) [BADGE] | not | 3 °C | inactive | non-hit |
| CC(C)(c1ccc(OC[C@H](O)CNS(C)(=O)=O)cc1)c1cc(Cl)c(OC[C@H](O)CCl)c(Cl)c1 [EPI-7170] | – | – | hits | hits |
